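Interpolation was linear, between the two tested concentrations surrounding the appropriate level; five concentrations were tested over 48 hours in 96-well plates. GI50 = concentration required for 50% inhibition of growth.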 Activity calls are given as the source filed them. No stated cut-off is given here; in the data, active = GI50 up to about 1.1 µM and inactive = higher.
What was measured:
Experiment in all cases: growth of human tumour cells (NCI), 48 h
RXF 393 = system: RXF 393
HOP-92 = system: HOP-92
NCI-H226 = system: NCI-H226
SF-539 = system: SF-539
T47D = system: T47D
SN12C = system: SN12C
COLO 205 = system: COLO 205
M14 = system: M14
PC-3 = system: PC-3
MDA-N = system: MDA-N
A498 = system: A498
DU-145 = system: DU-145
LOX IMVI = system: LOX IMVI
UACC-257 = system: UACC-257
HL-60 = system: HL-60
HCT-15 = system: HCT-15
HOP-62 = system: HOP-62
IGROV-1 = system: IGROV-1
786-0 = system: 786-0
KM12 = system: KM12
SK-MEL-5 = system: SK-MEL-5
HCT-116 = system: HCT-116
SNB-75 = system: SNB-75
SR = system: SR
RPMI-8226 = system: RPMI-8226
NCI/ADR-RES = system: NCI/ADR-RES
CCRF-CEM = system: CCRF-CEM
BT-549 = system: BT-549
UACC-62 = system: UACC-62
K562 = system: K562
EKVX = system: EKVX
MDA-MB-435 = system: MDA-MB-435
HT-29 = system: HT-29
SK-MEL-28 = system: SK-MEL-28
CAKI-1 = system: CAKI-1
SF-268 = system: SF-268
OVCAR-4 = system: OVCAR-4
Hs-578T = system: Hs-578T
TK-10 = system: TK-10
MDA-MB-231 = system: MDA-MB-231
SW-620 = system: SW-620
HCC 2998 = system: HCC 2998
U-251 = system: U-251
NCI-H460 = system: NCI-H460
NCI-H522 = system: NCI-H522
UO-31 = system: UO-31
SNB-19 = system: SNB-19
SK-MEL-2 = system: SK-MEL-2
NCI-H23 = system: NCI-H23
MCF7 = system: MCF7
OVCAR-8 = system: OVCAR-8
Malme-3M = system: Malme-3M
ACHN = system: ACHN
OVCAR-3 = system: OVCAR-3
A549 = system: A549
SK-OV-3 = system: SK-OV-3
SF-295 = system: SF-295
OVCAR-5 = system: OVCAR-5
MOLT-4 = system: MOLT-4

Structure (SMILES): COc1ccc(/C=N/c2c(O)ccc3ccccc23)cc1OC
- GI50 (RXF 393): 69.3 µM (inactive)
- GI50 (HOP-92): 1.95 µM (inactive)
- GI50 (NCI-H226): > 100 µM (inactive)
- GI50 (SF-539): > 100 µM (inactive)
- GI50 (T47D): 84.5 µM (inactive)
- GI50 (SN12C): > 100 µM (inactive)
- GI50 (COLO 205): 33 µM (inactive)
- GI50 (M14): 74.5 µM (inactive)
- GI50 (PC-3): > 100 µM (inactive)
- GI50 (MDA-N): 17.1 µM (inactive)
- GI50 (A498): > 100 µM (inactive)
- GI50 (DU-145): > 100 µM (inactive)
- GI50 (LOX IMVI): 46.8 µM (inactive)
- GI50 (UACC-257): 80.5 µM (inactive)
- GI50 (HL-60): 22.1 µM (inactive)
- GI50 (HCT-15): > 100 µM
- GI50 (HOP-62): 92 µM (inactive)
- GI50 (IGROV-1): 2.81 µM (inactive)
- GI50 (786-0): > 100 µM (inactive)
- GI50 (KM12): > 100 µM (inactive)
- GI50 (SK-MEL-5): 56.2 µM (inactive)
- GI50 (HCT-116): 97.9 µM (inactive)
- GI50 (SNB-75): 47.2 µM (inactive)
- GI50 (SR): > 100 µM (inactive)
- GI50 (RPMI-8226): 19.2 µM (inactive)
- GI50 (NCI/ADR-RES): > 100 µM (inactive)
- GI50 (CCRF-CEM): > 100 µM (inactive)
- GI50 (BT-549): 89.3 µM (inactive)
- GI50 (UACC-62): 72.6 µM (inactive)
- GI50 (K562): 47.1 µM (inactive)
- GI50 (EKVX): > 100 µM (inactive)
- GI50 (MDA-MB-435): 18.9 µM (inactive)
- GI50 (HT-29): 98.9 µM (inactive)
- GI50 (SK-MEL-28): > 100 µM (inactive)
- GI50 (CAKI-1): 63.2 µM (inactive)
- GI50 (SF-268): 19.4 µM (inactive)
- GI50 (OVCAR-4): > 100 µM (inactive)
- GI50 (Hs-578T): 4.36 µM (inactive)
- GI50 (TK-10): > 100 µM (inactive)
- GI50 (MDA-MB-231): 63.7 µM (inactive)
- GI50 (SW-620): > 100 µM (inactive)
- GI50 (HCC 2998): > 100 µM (inactive)
- GI50 (U-251): > 100 µM (inactive)
- GI50 (NCI-H460): 80.9 µM (inactive)
- GI50 (NCI-H522): 15.6 µM (inactive)
- GI50 (UO-31): > 100 µM (inactive)
- GI50 (SNB-19): > 100 µM (inactive)
- GI50 (SK-MEL-2): > 100 µM (inactive)
- GI50 (NCI-H23): 31.8 µM (inactive)
- GI50 (MCF7): > 100 µM (inactive)
- GI50 (OVCAR-8): > 100 µM (inactive)
- GI50 (Malme-3M): 14.5 µM (inactive)
- GI50 (ACHN): > 100 µM (inactive)
- GI50 (OVCAR-3): 5.14 µM (inactive)
- GI50 (A549): 54.6 µM (inactive)
- GI50 (SK-OV-3): > 100 µM (inactive)
- GI50 (SF-295): 63.7 µM (inactive)
- GI50 (OVCAR-5): > 100 µM (inactive)

Structure (SMILES): Cc1cc(-c2nc3cccc(F)c3s2)ccc1N
- GI50 (RXF 393): > 71 µM (inactive)
- GI50 (HOP-92): > 50.8 µM (inactive)
- GI50 (NCI-H226): 22.1 µM (inactive)
- GI50 (SF-539): > 100 µM (inactive)
- GI50 (T47D): 0.033 µM (active)
- GI50 (SN12C): > 45.8 µM (inactive)
- GI50 (COLO 205): > 100 µM (inactive)
- GI50 (M14): > 68.2 µM (inactive)
- GI50 (PC-3): > 65.8 µM (inactive)
- GI50 (MDA-N): > 60.3 µM (inactive)
- GI50 (A498): > 58.6 µM (inactive)
- GI50 (DU-145): > 73.5 µM (inactive)
- GI50 (LOX IMVI): > 63.2 µM (inactive)
- GI50 (UACC-257): > 68.1 µM (inactive)
- GI50 (HL-60): 13.3 µM (inactive)
- GI50 (HCT-15): > 67.6 µM
- GI50 (HOP-62): > 100 µM (inactive)
- GI50 (IGROV-1): 1.93 µM (inactive)
- GI50 (786-0): > 56.2 µM (inactive)
- GI50 (KM12): > 57.1 µM (inactive)
- GI50 (SK-MEL-5): > 100 µM (inactive)
- GI50 (HCT-116): > 52.7 µM (inactive)
- GI50 (SNB-75): > 51.4 µM (inactive)
- GI50 (SR): 2.52 µM (inactive)
- GI50 (RPMI-8226): > 52.6 µM (inactive)
- GI50 (NCI/ADR-RES): > 62.2 µM (inactive)
- GI50 (CCRF-CEM): 8.04 µM (inactive)
- GI50 (BT-549): 46.2 µM (inactive)
- GI50 (UACC-62): > 96.4 µM (inactive)
- GI50 (K562): > 56.6 µM (inactive)
- GI50 (EKVX): 49.5 µM (inactive)
- GI50 (MDA-MB-435): > 61.4 µM (inactive)
- GI50 (HT-29): > 57.3 µM (inactive)
- GI50 (SK-MEL-28): > 100 µM (inactive)
- GI50 (CAKI-1): > 59.6 µM (inactive)
- GI50 (SF-268): > 35 µM (inactive)
- GI50 (MOLT-4): 42.9 µM (inactive)
- GI50 (OVCAR-4): > 27.2 µM (inactive)
- GI50 (Hs-578T): > 54.2 µM (inactive)
- GI50 (TK-10): 0.48 µM (active)
- GI50 (MDA-MB-231): 98.9 µM (inactive)
- GI50 (SW-620): > 87.9 µM (inactive)
- GI50 (HCC 2998): > 37.1 µM (inactive)
- GI50 (U-251): > 68.2 µM (inactive)
- GI50 (NCI-H460): > 20.4 µM (inactive)
- GI50 (NCI-H522): > 100 µM (inactive)
- GI50 (UO-31): > 45 µM (inactive)
- GI50 (SNB-19): > 80.2 µM (inactive)
- GI50 (SK-MEL-2): > 85.3 µM (inactive)
- GI50 (MCF7): 0.0132 µM (active)
- GI50 (OVCAR-8): > 80.9 µM (inactive)
- GI50 (Malme-3M): > 100 µM (inactive)
- GI50 (ACHN): > 74.1 µM (inactive)
- GI50 (OVCAR-3): > 66.5 µM (inactive)
- GI50 (A549): > 52 µM (inactive)
- GI50 (SK-OV-3): > 100 µM (inactive)
- GI50 (SF-295): > 65 µM (inactive)

Structure (SMILES): CC(=O)Nc1ccc(-c2nc3ccccc3s2)cc1I
- GI50 (RXF 393): 14.8 µM (inactive)
- GI50 (HOP-92): 26.4 µM (inactive)
- GI50 (NCI-H226): 7.96 µM (inactive)
- GI50 (SF-539): 14.3 µM (inactive)
- GI50 (T47D): 1.85 µM (inactive)
- GI50 (SN12C): 36.6 µM (inactive)
- GI50 (COLO 205): 89.3 µM (inactive)
- GI50 (M14): 36.8 µM (inactive)
- GI50 (PC-3): 41.6 µM (inactive)
- GI50 (MDA-N): > 100 µM (inactive)
- GI50 (A498): 6.5 µM (inactive)
- GI50 (DU-145): 11 µM (inactive)
- GI50 (LOX IMVI): 24.8 µM (inactive)
- GI50 (UACC-257): > 100 µM (inactive)
- GI50 (HL-60): > 100 µM (inactive)
- GI50 (HCT-15): > 83.4 µM
- GI50 (HOP-62): 15.6 µM (inactive)
- GI50 (IGROV-1): 0.0184 µM (active)
- GI50 (786-0): 18.5 µM (inactive)
- GI50 (KM12): 54 µM (inactive)
- GI50 (SK-MEL-5): > 100 µM (inactive)
- GI50 (HCT-116): 1.16 µM (inactive)
- GI50 (SNB-75): 24.2 µM (inactive)
- GI50 (SR): > 100 µM (inactive)
- GI50 (RPMI-8226): > 100 µM (inactive)
- GI50 (NCI/ADR-RES): 42.3 µM (inactive)
- GI50 (CCRF-CEM): > 100 µM (inactive)
- GI50 (BT-549): 25.5 µM (inactive)
- GI50 (UACC-62): 22.6 µM (inactive)
- GI50 (K562): > 58.1 µM (inactive)
- GI50 (EKVX): 7.87 µM (inactive)
- GI50 (MDA-MB-435): > 94.8 µM (inactive)
- GI50 (HT-29): > 65.6 µM (inactive)
- GI50 (SK-MEL-28): > 100 µM (inactive)
- GI50 (CAKI-1): 20 µM (inactive)
- GI50 (SF-268): 33.4 µM (inactive)
- GI50 (MOLT-4): > 100 µM (inactive)
- GI50 (OVCAR-4): 8.79 µM (inactive)
- GI50 (Hs-578T): 39.5 µM (inactive)
- GI50 (MDA-MB-231): 17.5 µM (inactive)
- GI50 (SW-620): > 100 µM (inactive)
- GI50 (HCC 2998): 0.488 µM (active)
- GI50 (U-251): 25.1 µM (inactive)
- GI50 (NCI-H460): 49.4 µM (inactive)
- GI50 (NCI-H522): 42.2 µM (inactive)
- GI50 (UO-31): 15.1 µM (inactive)
- GI50 (SNB-19): 24.3 µM (inactive)
- GI50 (SK-MEL-2): 50.4 µM (inactive)
- GI50 (NCI-H23): 18 µM (inactive)
- GI50 (MCF7): 0.0463 µM (active)
- GI50 (OVCAR-8): 18.5 µM (inactive)
- GI50 (Malme-3M): 34.8 µM (inactive)
- GI50 (ACHN): 26.5 µM (inactive)
- GI50 (OVCAR-3): 11.7 µM (inactive)
- GI50 (A549): 45 µM (inactive)
- GI50 (SK-OV-3): 18.3 µM (inactive)
- GI50 (SF-295): 29.4 µM (inactive)
